Results published in patent US20080207683A1, “BIARYL-S[…]-PYRAZOLO-PYRIDINE MODULATORS OF CATHEPSIN S” (priority 2007, published 2008).
pKi: −log10 of the molar value.

Biological target: T1, Human CatS (Homo sapiens, UniProt P25774)
T1 construct: made in house; host or cells: Sf9 insect cells (baculovirus vector pFB+HT)
Test: CatS inhibition of hydrolysis of fluorescent substrate Z-Val-Val-Arg-AFC
Format: biochemical
Conditions: not given
Experimental: Human CatS was cloned into pFB+HT (from Stratagene clone), expressed in Sf9 cells, and purified over a Ni column. Fractions were concentrated and activated at pH 4.0 for 6 hr and then purified over a thiopropylsepharose column and eluted with 1×TBS, 500 mM NaCl, 1 mM EDTA, 25 mM DTT pH 7.6. Glycerol (50%) was added in a 1:1 (vol/vol) ratio (25% glycerol final) and protein was stored at −80° C. in 5 μL aliquots. […] The increase in fluorescence over time was monitored using λexcitation=400 nm and λemission=505 nm.
In equation 1, v is the initial rate measured in the presence of [I]0, the inhibitor concentration, using an enzyme concentration [E]0. v0 is the initial rate measured in the absence of inhibitor.

T1 sequence (P25774 115-331): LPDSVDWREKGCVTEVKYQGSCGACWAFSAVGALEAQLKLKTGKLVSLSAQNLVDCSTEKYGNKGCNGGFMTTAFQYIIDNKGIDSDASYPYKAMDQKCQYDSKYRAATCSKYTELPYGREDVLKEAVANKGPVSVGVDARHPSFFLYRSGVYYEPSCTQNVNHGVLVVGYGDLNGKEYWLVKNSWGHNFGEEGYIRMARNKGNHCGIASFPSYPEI

| Structure (SMILES) | pKi |
| --- | --- |
| CS(=O)(=O)N1CCc2c(c(-c3ccc(Cl)c(-c4cccc(C(=O)NCc5cc6ccccc6[nH]5)c4)c3)nn2CCCN2CCCC2)C1 [Example 13, 2′-Chloro-5′-[5-methanesulfonyl-1-(3-pyrrolidin-1-yl-propyl)-4,5,6,7-tetrahydro-1H-pyrazolo[4,3-c]pyridin-3-yl]-biphenyl-3-carboxylic acid (1H-indol-2-ylmethyl)-amide] | 6.48 |
| COc1ccc(CNC(=O)c2cccc(-c3cc(-c4nn(CCCN5CCCC5)c5c4CN(S(C)(=O)=O)CC5)ccc3Cl)c2)cc1 [Example 15, 2′-Chloro-5′-[5-methanesulfonyl-1-(3-pyrrolidin-1-yl-propyl)-4,5,6,7-tetrahydro-1H-pyrazolo[4,3-c]pyridin-3-yl]-biphenyl-3-carboxylic acid 4-methoxy-benzylamide] | 6.35 |

Same assay, conditions: apparent Ki, Morrison equation fit of initial rates; 10 μM Z-Val-Val-Arg-AFC, pH 5.0, 1.5 nM CatS; read-out: CatS Ki^app

| Structure (SMILES) | pKi |
| --- | --- |
| CS(=O)(=O)N1CCc2c(c(-c3ccc(Cl)c(-c4cccc(C(=O)NCCNc5cccnc5)c4)c3)nn2CCCN2CCCC2)C1 [Example 7, 2′-Chloro-5′-[5-methanesulfonyl-1-(3-pyrrolidin-1-yl-propyl)-4,5,6,7-tetrahydro-1H-pyrazolo[4,3-c]pyridin-3-yl]-biphenyl-3-carboxylic acid [2-(pyridin-3-ylamino)-ethyl]-amide] | 6.06 |
| CS(=O)(=O)N1CCc2c(c(-c3ccc(Cl)c(-c4cccc(C(=O)NCc5nc6ccccc6s5)c4)c3)nn2CCCN2CCC(N3CCCC3=O)CC2)C1 [Example 34, 2′-Chloro-5′-(5-methanesulfonyl-1-{3-[4-(2-oxo-pyrrolidin-1-yl)-piperidin-1-yl]-propyl}-4,5,6,7-tetrahydro-1H-pyrazolo[4,3-c]pyridin-3-yl)-biphenyl-3-carboxylic acid (benzothiazol-2-ylmethyl)-amide] | 7.14 |
| COc1ccc(CNC(=O)c2cccc(-c3cc(-c4nn(CCCN5CCCC5)c5c4CN(C(C)=O)CC5)ccc3Cl)c2)cc1 [Example 41, 5′-[5-Acetyl-1-(3-pyrrolidin-1-yl-propyl)-4,5,6,7-tetrahydro-1H-pyrazolo[4,3-c]pyridin-3-yl]-2′-chloro-biphenyl-3-carboxylic acid 4-methoxy-benzylamide] | 6.37 |
| CS(=O)(=O)N1CCc2c(c(-c3ccc(Cl)c(-c4cccc(C(=O)NCc5nc6cc(Cl)ccc6[nH]5)c4)c3)nn2CCCN2CCCC2)C1 [Example 21, 2′-Chloro-5′-[5-methanesulfonyl-1-(3-pyrrolidin-1-yl-propyl)-4,5,6,7-tetrahydro-1H-pyrazolo[4,3-c]pyridin-3-yl]-biphenyl-3-carboxylic acid (5-chloro-1H-benzoimidazol-2-ylmethyl)-amide] | 7.15 |
| CN(C)S(=O)(=O)c1cccc2c1N(CCNC(=O)c1cccc(-c3cc(-c4nn(CCCN5CCCC5)c5c4CN(S(C)(=O)=O)CC5)ccc3Cl)c1)CC2 [Example 10, 2′-Chloro-5′-[5-methanesulfonyl-1-(3-pyrrolidin-1-yl-propyl)-4,5,6,7-tetrahydro-1H-pyrazolo[4,3-c]pyridin-3-yl]-biphenyl-3-carboxylic acid [2-(7-dimethylsulfamoyl-2,3-dihydro-indol-1-yl)-ethyl]-amide] | 7.31 |
| COc1ccc(NC(=O)CNC(=O)c2cccc(-c3cc(-c4nn(CCCN5CCCC5)c5c4CN(S(C)(=O)=O)CC5)ccc3Cl)c2)cc1 [Example 26, 2′-Chloro-5′-[5-methanesulfonyl-1-(3-pyrrolidin-1-yl-propyl)-4,5,6,7-tetrahydro-1H-pyrazolo[4,3-c]pyridin-3-yl]-biphenyl-3-carboxylic acid [(4-methoxy-phenylcarbamoyl)-methyl]-amide] | 6.15 |
| CCC(NC(=O)c1cccc(-c2cc(-c3nn(CCCN4CCCC4)c4c3CN(S(C)(=O)=O)CC4)ccc2Cl)c1)c1nc2cc(C)ccc2[nH]1 (stereo not drawn) [Example 17, 2′-Chloro-5′-[5-methanesulfonyl-1-(3-pyrrolidin-1-yl-propyl)-4,5,6,7-tetrahydro-1H-pyrazolo[4,3-c]pyridin-3-yl]-biphenyl-3-carboxylic acid [1-(5-methyl-1H-benzoimidazol-2-yl)-propyl]-amide] | 6.90 |
| CC(=O)N1CCc2c(c(-c3ccc(Cl)c(-c4cccc(C(=O)NCc5nc6ccccc6s5)c4)c3)nn2CCCN2CCCC2)C1 [Example 38, 5′-[5-Acetyl-1-(3-pyrrolidin-1-yl-propyl)-4,5,6,7-tetrahydro-1H-pyrazolo[4,3-c]pyridin-3-yl]-2′-chloro-biphenyl-3-carboxylic acid (benzothiazol-2-ylmethyl)-amide] | 6.64 |
| O=C(NCCNc1ccc(OCC2CCCC2)cc1)c1cccc(-c2cc(-c3nn(CCCN4CCC(O)C4)c4c3CNCC4)ccc2Cl)c1 (stereo not drawn) [Example 47, 2′-Chloro-5′-{1-[3-(3-hydroxy-pyrrolidin-1-yl)-propyl]-4,5,6,7-tetrahydro-1H-pyrazolo[4,3-c]pyridin-3-yl}-biphenyl-3-carboxylic acid [2-(4-cyclopentylmethoxy-phenylamino)-ethyl]-amide] | 7.27 |
| CS(=O)(=O)N1CCc2c(c(-c3ccc(Cl)c(-c4cccc(C(=O)NCc5nc6cc(F)ccc6s5)c4)c3)nn2CCCN2CCCC2)C1 [Example 25, 2′-Chloro-5′-[5-methanesulfonyl-1-(3-pyrrolidin-1-yl-propyl)-4,5,6,7-tetrahydro-1H-pyrazolo[4,3-c]pyridin-3-yl]-biphenyl-3-carboxylic acid (5-fluoro-benzothiazol-2-ylmethyl)-amide] | 6.93 |
| Cc1ccc(NCCNC(=O)c2cccc(-c3cc(-c4nn(CCCN5CCCC5)c5c4CN(S(C)(=O)=O)CC5)ccc3Cl)c2)cc1 [Example 2, 2′-Chloro-5′-[5-methanesulfonyl-1-(3-pyrrolidin-1-yl-propyl)-4,5,6,7-tetrahydro-1H-pyrazolo[4,3-c]pyridin-3-yl]-biphenyl-3-carboxylic acid (2-p-tolylamino-ethyl)-amide] | 6.46 |
| COc1ccc(NCCNC(=O)c2cccc(-c3cc(-c4nn(CCCN5CCCC5)c5c4CN(S(C)(=O)=O)CC5)ccc3Cl)c2)cn1 [Example 6, 2′-Chloro-5′-[5-methanesulfonyl-1-(3-pyrrolidin-1-yl-propyl)-4,5,6,7-tetrahydro-1H-pyrazolo[4,3-c]pyridin-3-yl]-biphenyl-3-carboxylic acid [2-(6-methoxy-pyridin-3-ylamino)-ethyl]-amide] | 6.50 |
| COc1ccc(NCCNC(=O)c2cccc(-c3cc(-c4nn(CCCN5CCC(N6CCCC6=O)CC5)c5c4CN(S(C)(=O)=O)CC5)ccc3Cl)c2)cc1 [Example 31, 2′-Chloro-5′-(5-methanesulfonyl-1-{3-[4-(2-oxo-pyrrolidin-1-yl)-piperidin-1-yl]-propyl}-4,5,6,7-tetrahydro-1H-pyrazolo[4,3-c]pyridin-3-yl)-biphenyl-3-carboxylic acid [2-(4-methoxy-phenylamino)-ethyl]-amide] | 7.56 |
| CS(=O)(=O)N1CCc2c(c(-c3ccc(Cl)c(-c4cccc(C(=O)NCc5ncco5)c4)c3)nn2CCCN2CCC(O)C2)C1 (stereo not drawn) [Example 29, 2′-Chloro-5′-{1-[3-(3-hydroxy-pyrrolidin-1-yl)-propyl]-5-methanesulfonyl-4,5,6,7-tetrahydro-1H-pyrazolo[4,3-c]pyridin-3-yl}-biphenyl-3-carboxylic acid (oxazol-2-ylmethyl)-amide] | 6.32 |
| Cc1ccc2[nH]c(C(C)NC(=O)c3cccc(-c4cc(-c5nn(CCCN6CCC(N7CCCC7=O)CC6)c6c5CN(S(C)(=O)=O)CC6)ccc4Cl)c3)nc2c1 (stereo not drawn) [Example 35, 2′-Chloro-5′-(5-methanesulfonyl-1-{3-[4-(2-oxo-pyrrolidin-1-yl)-piperidin-1-yl]-propyl}-4,5,6,7-tetrahydro-1H-pyrazolo[4,3-c]pyridin-3-yl)-biphenyl-3-carboxylic acid [1-(5-methyl-1H-benzoimidazol-2-yl)-ethyl]-amide] | 6.91 |
| CS(=O)(=O)N1CCc2c(c(-c3ccc(Cl)c(-c4cccc(C(=O)NCCN5CCc6cc(F)ccc65)c4)c3)nn2CCCN2CCCC2)C1 [Example 8, 2′-Chloro-5′-[5-methanesulfonyl-1-(3-pyrrolidin-1-yl-propyl)-4,5,6,7-tetrahydro-1H-pyrazolo[4,3-c]pyridin-3-yl]-biphenyl-3-carboxylic acid [2-(5-fluoro-2,3-dihydro-indol-1-yl)-ethyl]-amide] | 6.62 |
| CN(C)S(=O)(=O)c1ccc2c(c1)N(CCNC(=O)c1cccc(-c3cc(-c4nn(CCCN5CCCC5)c5c4CN(S(C)(=O)=O)CC5)ccc3Cl)c1)CC2 [Example 11, 2′-Chloro-5′-[5-methanesulfonyl-1-(3-pyrrolidin-1-yl-propyl)-4,5,6,7-tetrahydro-1H-pyrazolo[4,3-c]pyridin-3-yl]-biphenyl-3-carboxylic acid [2-(6-dimethylsulfamoyl-2,3-dihydro-indol-1-yl)-ethyl]-amide] | 6.87 |
| Cc1ccc(NCCNC(=O)c2cccc(-c3cc(-c4nn(CCCN5CCC(O)C5)c5c4CNCC5)ccc3Cl)c2)cc1C (stereo not drawn) [Example 42, 2′-Chloro-5′-{1-[3-(3-hydroxy-pyrrolidin-1-yl)-propyl]-4,5,6,7-tetrahydro-1H-pyrazolo[4,3-c]pyridin-3-yl}-biphenyl-3-carboxylic acid [2-(3,4-dimethyl-phenylamino)-ethyl]-amide] | 7.38 |
| C[C@@H](CN1CCc2cc(F)ccc21)NC(=O)c1cccc(-c2cc(-c3nn(CCCN4CCCC4)c4c3CN(S(C)(=O)=O)CC4)ccc2Cl)c1 [Example 9, (S)-2′-Chloro-5′-[5-methanesulfonyl-1-(3-pyrrolidin-1-yl-propyl)-4,5,6,7-tetrahydro-1H-pyrazolo[4,3-c]pyridin-3-yl]-biphenyl-3-carboxylic acid [2-(5-fluoro-2,3-dihydro-indol-1-yl)-1-methyl-ethyl]-amide] | 6.86 |
